According to US20100292231A1, “Indazole Compounds for Treating Inflammatory Disorders, Demyelinating Disorders and Cancers” (priority 2007, published 2010):
Read-outs that look alike come from different tables or passages of the source.

Columns and labels:
Assay in all cases: SelectScreen kinase specificity survey
Format in all cases: biochemical
[1] = molecular target: T1, PRKX (Homo sapiens, UniProt P51817); settings: estimated, abridged dose response curve, read-out: Kinase inhibitory activity EC50
T1 construct: purchased Invitrogen (SelectScreen platform)
Procedure, shortened: (§1)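 Kinases from all classes (230 in total) are treated with a unique substrate and optical read-out system in the presence of 100 micromolar ATP. Uninhibited controls give the baseline phosphorylation signal, and graded compound in 5 steps yields the curve for Hill fitting.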

[2] = molecular target: T2, HCK (Homo sapiens, UniProt P08631); settings: estimated, abridged dose response curve, read-out: Kinase inhibitory activity EC50
T2 construct: purchased Invitrogen (SelectScreen)
Procedure, shortened: as §1

[3] = molecular target: T3, MAP4K2 (GCK) (Homo sapiens, UniProt Q12851); settings: estimated, abridged dose response curve, read-out: Kinase inhibitory activity EC50
T3 construct: purchased Invitrogen, Inc. (SelectScreen service)
Procedure, shortened: as §1

[4] = molecular target: T4, MYLK2 (skMLCK) (Homo sapiens, UniProt Q9H1R3); settings: estimated, abridged dose response curve; for EC50: read-out: Kinase inhibitory activity EC50
T4 construct: purchased Invitrogen, Inc. (SelectScreen platform)
Procedure, shortened: as §1

[5] = molecular target: T5, CHEK2 (CHK2) (Homo sapiens, UniProt O96017); settings: estimated, abridged dose response curve, read-out: Kinase inhibitory activity EC50
T5 construct: purchased Invitrogen, Inc. (SelectScreen platform)
Procedure, shortened: as §1

[6] = molecular target: T6, CSNK1A1 (CK1 alpha 1) (Homo sapiens, UniProt P48729); settings: estimated, abridged dose response curve, read-out: Kinase inhibitory activity EC50
T6 construct: purchased Invitrogen (SelectScreen platform)
Procedure, shortened: as §1

[7] = molecular target: T7, ROCK2 (Homo sapiens, UniProt O75116); settings: estimated, abridged dose response curve, read-out: Kinase inhibitory activity EC50
T7 construct: purchased Invitrogen (SelectScreen platform)
Procedure, shortened: as §1

[8] = molecular target: T8, LYN A (Homo sapiens, UniProt P07948); settings: estimated, abridged dose response curve, read-out: Kinase inhibitory activity EC50
T8 construct: purchased Invitrogen (SelectScreen)
T8 sequence (P07948 whole entry): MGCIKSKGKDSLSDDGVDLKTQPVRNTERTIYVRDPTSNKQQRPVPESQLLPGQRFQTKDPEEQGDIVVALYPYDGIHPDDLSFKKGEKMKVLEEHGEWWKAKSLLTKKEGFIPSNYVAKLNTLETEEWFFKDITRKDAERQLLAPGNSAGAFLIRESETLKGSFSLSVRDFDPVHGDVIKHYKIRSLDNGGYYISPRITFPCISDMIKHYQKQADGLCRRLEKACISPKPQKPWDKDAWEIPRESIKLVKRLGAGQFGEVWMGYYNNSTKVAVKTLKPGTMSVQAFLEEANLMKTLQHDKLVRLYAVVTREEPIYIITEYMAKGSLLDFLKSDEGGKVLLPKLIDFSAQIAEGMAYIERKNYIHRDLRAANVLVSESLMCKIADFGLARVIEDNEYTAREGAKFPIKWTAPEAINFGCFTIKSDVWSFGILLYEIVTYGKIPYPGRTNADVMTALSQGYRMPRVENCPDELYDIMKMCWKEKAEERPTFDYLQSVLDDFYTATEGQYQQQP
Procedure, shortened: as §1

[9] = molecular target: T9, ADRBK2 (BARK2, GRK3) (Homo sapiens, UniProt P35626)
T9 construct: purchased Invitrogen (SelectScreen platform)
Procedure, shortened: as §1

[10] = molecular target: T10, PIM1 (Homo sapiens, UniProt P11309); settings: estimated, abridged dose response curve, read-out: Kinase inhibitory activity EC50
T10 construct: purchased Invitrogen, Inc. (SelectScreen platform)
Procedure, shortened: as §1

[11] = molecular target: T11, GRK4 (Homo sapiens, UniProt P32298)
T11 construct: purchased Invitrogen (SelectScreen platform)
Procedure, shortened: as §1

[12] = molecular target: T12, EPHA1 (Homo sapiens, UniProt P21709); settings: estimated, abridged dose response curve, read-out: Kinase inhibitory activity EC50
T12 construct: purchased Invitrogen (SelectScreen service)
Procedure, shortened: as §1

[13] = molecular target: T13, PRKACA (PKA, PKACA) (Homo sapiens, UniProt P17612); settings: estimated, abridged dose response curve, read-out: Kinase inhibitory activity EC50
T13 construct: purchased Invitrogen (SelectScreen platform)
Procedure, shortened: as §1

[14] = molecular target: T14, MERTK (cMER) (Homo sapiens, UniProt Q12866); settings: estimated, abridged dose response curve, read-out: Kinase inhibitory activity EC50
T14 construct: purchased Invitrogen (SelectScreen service)
Procedure, shortened: as §1

[15] = molecular target: T15, PDGFRA T674I (Homo sapiens, UniProt P16234, T674I); settings: estimated, abridged dose response curve, read-out: Kinase inhibitory activity EC50
T15 construct: purchased Invitrogen (SelectScreen platform)
Procedure, shortened: as §1

[16] = molecular target: T16, PAK2 (PAK65) (Homo sapiens, UniProt Q13177); settings: estimated, abridged dose response curve, read-out: Kinase inhibitory activity EC50
T16 construct: purchased Invitrogen (SelectScreen platform)
Procedure, shortened: as §1

[17] = molecular target: T17, FLT4 (VEGFR3) (Homo sapiens, UniProt P35916); settings: estimated, abridged dose response curve, read-out: Kinase inhibitory activity EC50
T17 construct: purchased Invitrogen, Inc. (SelectScreen platform)
T17 sequence (P35916 25-1363): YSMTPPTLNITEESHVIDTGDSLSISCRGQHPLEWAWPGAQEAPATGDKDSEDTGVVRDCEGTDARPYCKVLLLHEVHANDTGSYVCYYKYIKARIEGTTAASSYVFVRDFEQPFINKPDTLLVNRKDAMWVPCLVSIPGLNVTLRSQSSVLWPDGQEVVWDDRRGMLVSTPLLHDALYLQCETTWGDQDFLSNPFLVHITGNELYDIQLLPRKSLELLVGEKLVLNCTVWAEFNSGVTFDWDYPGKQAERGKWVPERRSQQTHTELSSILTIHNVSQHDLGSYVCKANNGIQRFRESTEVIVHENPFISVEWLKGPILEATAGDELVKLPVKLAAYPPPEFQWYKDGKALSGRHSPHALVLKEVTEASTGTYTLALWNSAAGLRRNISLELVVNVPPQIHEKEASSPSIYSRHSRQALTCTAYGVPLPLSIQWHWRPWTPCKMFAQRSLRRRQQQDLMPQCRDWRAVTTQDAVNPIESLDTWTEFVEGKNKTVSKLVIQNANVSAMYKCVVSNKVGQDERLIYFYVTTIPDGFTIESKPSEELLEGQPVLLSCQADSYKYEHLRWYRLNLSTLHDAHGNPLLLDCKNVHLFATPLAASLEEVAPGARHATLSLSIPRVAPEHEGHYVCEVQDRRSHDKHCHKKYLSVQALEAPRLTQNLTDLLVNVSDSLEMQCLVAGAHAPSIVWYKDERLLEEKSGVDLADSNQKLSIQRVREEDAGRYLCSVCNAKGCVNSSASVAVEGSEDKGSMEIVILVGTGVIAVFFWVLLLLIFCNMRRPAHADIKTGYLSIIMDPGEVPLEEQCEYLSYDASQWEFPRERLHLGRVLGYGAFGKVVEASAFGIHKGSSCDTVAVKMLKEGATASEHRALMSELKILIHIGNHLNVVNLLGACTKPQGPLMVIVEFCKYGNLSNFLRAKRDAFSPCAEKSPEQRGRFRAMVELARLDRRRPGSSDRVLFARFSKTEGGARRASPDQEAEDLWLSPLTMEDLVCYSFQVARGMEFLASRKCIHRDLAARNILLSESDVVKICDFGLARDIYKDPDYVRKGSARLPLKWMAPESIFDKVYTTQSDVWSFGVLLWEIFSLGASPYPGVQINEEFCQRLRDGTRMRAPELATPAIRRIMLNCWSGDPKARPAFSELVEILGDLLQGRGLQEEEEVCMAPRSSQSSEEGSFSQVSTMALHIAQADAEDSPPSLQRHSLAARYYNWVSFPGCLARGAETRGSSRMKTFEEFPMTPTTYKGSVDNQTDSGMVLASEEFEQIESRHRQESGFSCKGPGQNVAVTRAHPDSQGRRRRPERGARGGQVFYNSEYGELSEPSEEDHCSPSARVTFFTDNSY
Procedure, shortened: as §1

[18] = molecular target: T18, EEF2K (Homo sapiens, UniProt O00418); settings: estimated, abridged dose response curve, read-out: Kinase inhibitory activity EC50
T18 construct: purchased Invitrogen, Inc. (SelectScreen platform)
Procedure, shortened: as §1

[19] = molecular target: T19, RET V804L (Homo sapiens, UniProt P07949, V804L); settings: estimated, abridged dose response curve, read-out: Kinase inhibitory activity EC50
T19 construct: purchased Invitrogen (SelectScreen)
T19 sequence (P07949 29-1114 V804L): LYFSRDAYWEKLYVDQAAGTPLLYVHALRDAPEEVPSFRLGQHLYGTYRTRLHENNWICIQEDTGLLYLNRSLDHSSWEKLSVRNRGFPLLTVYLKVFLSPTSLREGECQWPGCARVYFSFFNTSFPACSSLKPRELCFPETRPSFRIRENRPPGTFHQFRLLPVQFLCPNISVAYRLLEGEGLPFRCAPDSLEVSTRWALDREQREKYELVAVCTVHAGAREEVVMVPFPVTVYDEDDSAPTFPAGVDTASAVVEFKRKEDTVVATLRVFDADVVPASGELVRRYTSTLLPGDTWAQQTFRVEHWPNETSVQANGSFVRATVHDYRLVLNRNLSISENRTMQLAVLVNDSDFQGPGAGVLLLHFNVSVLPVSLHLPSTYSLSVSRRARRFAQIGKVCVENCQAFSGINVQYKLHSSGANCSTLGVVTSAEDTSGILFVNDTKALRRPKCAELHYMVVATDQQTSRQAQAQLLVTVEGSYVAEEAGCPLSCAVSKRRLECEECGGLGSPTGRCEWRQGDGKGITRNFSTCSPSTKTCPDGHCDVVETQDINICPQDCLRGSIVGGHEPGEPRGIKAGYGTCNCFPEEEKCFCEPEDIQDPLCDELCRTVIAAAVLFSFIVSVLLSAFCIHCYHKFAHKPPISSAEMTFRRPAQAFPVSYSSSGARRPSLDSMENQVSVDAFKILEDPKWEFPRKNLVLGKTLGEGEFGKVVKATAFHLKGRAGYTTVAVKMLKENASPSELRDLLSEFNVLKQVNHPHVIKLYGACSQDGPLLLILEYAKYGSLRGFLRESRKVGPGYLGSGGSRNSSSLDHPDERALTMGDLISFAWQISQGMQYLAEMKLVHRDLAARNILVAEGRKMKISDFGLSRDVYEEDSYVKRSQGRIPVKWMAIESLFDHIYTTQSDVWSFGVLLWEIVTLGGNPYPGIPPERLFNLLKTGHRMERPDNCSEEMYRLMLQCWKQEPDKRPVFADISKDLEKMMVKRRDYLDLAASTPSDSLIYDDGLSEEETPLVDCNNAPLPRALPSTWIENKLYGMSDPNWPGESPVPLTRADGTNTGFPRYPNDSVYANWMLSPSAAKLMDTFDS
Procedure, shortened: as §1

[20] = molecular target: T20, MUSK (Homo sapiens, UniProt O15146); settings: estimated, abridged dose response curve, read-out: Kinase inhibitory activity EC50
T20 construct: purchased Invitrogen (SelectScreen platform)
Procedure, shortened: as §1

[21] = molecular target: T21, PRKG1 (PKG1) (Homo sapiens, UniProt Q13976); settings: estimated, abridged dose response curve, read-out: Kinase inhibitory activity EC50
T21 construct: purchased Invitrogen, Inc. (SelectScreen platform)
T21 sequence (Q13976 whole entry): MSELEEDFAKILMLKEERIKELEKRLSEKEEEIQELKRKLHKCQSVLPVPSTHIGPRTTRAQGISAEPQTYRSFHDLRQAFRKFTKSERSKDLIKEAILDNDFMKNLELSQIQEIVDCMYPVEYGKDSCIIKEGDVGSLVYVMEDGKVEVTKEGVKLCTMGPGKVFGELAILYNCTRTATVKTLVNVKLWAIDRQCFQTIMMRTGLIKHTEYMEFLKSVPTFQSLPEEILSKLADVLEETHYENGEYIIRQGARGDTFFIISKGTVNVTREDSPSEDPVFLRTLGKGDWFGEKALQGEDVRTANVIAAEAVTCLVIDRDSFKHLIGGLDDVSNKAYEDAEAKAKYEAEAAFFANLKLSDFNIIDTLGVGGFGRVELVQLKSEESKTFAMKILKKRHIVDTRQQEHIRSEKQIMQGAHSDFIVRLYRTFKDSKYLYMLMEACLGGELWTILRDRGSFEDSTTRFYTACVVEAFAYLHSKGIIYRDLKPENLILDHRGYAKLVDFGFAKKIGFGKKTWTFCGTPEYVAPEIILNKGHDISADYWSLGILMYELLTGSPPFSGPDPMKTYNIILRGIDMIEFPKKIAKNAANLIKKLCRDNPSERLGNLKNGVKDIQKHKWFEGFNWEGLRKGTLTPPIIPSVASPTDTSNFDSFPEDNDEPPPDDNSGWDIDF
Procedure, shortened: as §1

[22] = molecular target: T22, PTK6 (Brk) (Homo sapiens, UniProt Q13882); settings: estimated, abridged dose response curve, read-out: Kinase inhibitory activity EC50
T22 construct: purchased Invitrogen (SelectScreen)
Procedure, shortened: as §1

[23] = molecular target: T23, JAK3 (Homo sapiens, UniProt P52333); settings: estimated, abridged dose response curve, read-out: Kinase inhibitory activity EC50
T23 construct: purchased Invitrogen (SelectScreen platform)
Procedure, shortened: as §1

[24] = molecular target: T24, GRK7 (Homo sapiens, UniProt Q8WTQ7)
T24 construct: purchased Invitrogen (SelectScreen platform)
Procedure, shortened: as §1

[25] = molecular target: T25, RPS6KA1 (RSK1) (Homo sapiens, UniProt Q15418); settings: estimated, abridged dose response curve, read-out: Kinase inhibitory activity EC50
T25 construct: purchased Invitrogen, Inc. (SelectScreen platform)
Procedure, shortened: as §1

[26] = molecular target: T26, MET (cMet) (Homo sapiens, UniProt P08581); settings: estimated, abridged dose response curve, read-out: Kinase inhibitory activity EC50
T26 construct: purchased Invitrogen (SelectScreen platform)
T26 sequence (P08581 25-1390): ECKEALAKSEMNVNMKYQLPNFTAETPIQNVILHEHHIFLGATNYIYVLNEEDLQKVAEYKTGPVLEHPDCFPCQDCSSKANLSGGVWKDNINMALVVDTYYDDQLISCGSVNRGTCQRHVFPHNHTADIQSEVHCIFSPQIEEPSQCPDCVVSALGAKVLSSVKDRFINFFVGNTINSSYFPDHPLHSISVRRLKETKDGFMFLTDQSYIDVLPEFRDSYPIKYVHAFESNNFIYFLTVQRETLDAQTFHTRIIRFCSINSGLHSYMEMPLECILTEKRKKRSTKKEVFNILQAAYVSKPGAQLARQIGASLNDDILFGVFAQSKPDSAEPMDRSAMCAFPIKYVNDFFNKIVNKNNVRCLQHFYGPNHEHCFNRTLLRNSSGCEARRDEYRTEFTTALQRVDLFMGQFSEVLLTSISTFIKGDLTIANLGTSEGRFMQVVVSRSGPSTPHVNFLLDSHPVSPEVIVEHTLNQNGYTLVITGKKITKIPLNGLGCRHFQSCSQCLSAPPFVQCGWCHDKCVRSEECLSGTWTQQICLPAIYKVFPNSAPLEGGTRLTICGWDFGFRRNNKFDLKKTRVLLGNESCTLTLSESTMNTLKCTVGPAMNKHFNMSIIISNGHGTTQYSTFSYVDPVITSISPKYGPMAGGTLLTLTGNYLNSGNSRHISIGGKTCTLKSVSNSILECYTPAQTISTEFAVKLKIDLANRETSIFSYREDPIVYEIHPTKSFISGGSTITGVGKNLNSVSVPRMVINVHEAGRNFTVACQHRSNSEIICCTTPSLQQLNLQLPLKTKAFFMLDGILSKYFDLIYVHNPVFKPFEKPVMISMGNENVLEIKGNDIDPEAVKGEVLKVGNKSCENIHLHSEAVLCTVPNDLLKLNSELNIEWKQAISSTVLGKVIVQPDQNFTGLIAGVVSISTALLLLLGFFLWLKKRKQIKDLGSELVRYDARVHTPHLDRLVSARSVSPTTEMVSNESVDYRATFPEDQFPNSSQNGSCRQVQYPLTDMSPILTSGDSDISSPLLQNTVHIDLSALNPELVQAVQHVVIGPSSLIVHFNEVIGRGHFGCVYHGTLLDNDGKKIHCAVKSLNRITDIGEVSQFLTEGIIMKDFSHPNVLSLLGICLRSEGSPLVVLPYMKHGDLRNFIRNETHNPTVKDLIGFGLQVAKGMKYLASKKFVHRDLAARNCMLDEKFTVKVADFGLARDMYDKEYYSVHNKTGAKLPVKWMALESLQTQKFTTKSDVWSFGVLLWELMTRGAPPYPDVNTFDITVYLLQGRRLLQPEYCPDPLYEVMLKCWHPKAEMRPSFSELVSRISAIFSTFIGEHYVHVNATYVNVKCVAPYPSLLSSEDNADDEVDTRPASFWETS
Procedure, shortened: as §1

| SMILES | EC50 [1] | EC50 [2] | EC50 [3] | EC50 [4] | EC50 [5] | EC50 [6] | EC50 [7] | EC50 [8] | EC50 [10] | EC50 [12] | EC50 [13] | EC50 [14] | EC50 [15] | EC50 [16] | EC50 [17] | EC50 [18] | EC50 [19] | EC50 [20] | EC50 [21] | EC50 [22] | other results |
| --- | --- | --- | --- | --- | --- | --- | --- | --- | --- | --- | --- | --- | --- | --- | --- | --- | --- | --- | --- | --- | --- |
| CN(C)CCCNc1ccc2ncn3c4ccc5[nH]ncc5c4c(=O)c1c23 [Compound (IV)] | 1.4 µM | 2.28 µM | > 5 µM | 0.015 µM | > 5 µM | > 5 µM | 0.963 µM | 0.389 µM | 3.42 µM | > 5 µM | > 5 µM | > 5 µM | > 5 µM | > 5 µM | 1.49 µM | > 5 µM | 0.864 µM | 1.43 µM | > 5 µM | > 5 µM | Kinase inhibitory activity EC50 [4]: low nM; EC50 ([9]; ADRBK2 (BARK2, GRK3), estimated, abridged dose response curve, read-out: Kinase inhibitory activity EC50): > 5 µM; EC50 ([11]; GRK4, estimated, abridged dose response curve, read-out: Kinase inhibitory activity EC50): > 5 µM; EC50 [23]: > 5 µM; EC50 ([24]; GRK7, estimated, abridged dose response curve, read-out: Kinase inhibitory activity EC50): > 5 µM; EC50 [25]: 1.74 µM; EC50 [26]: > 5 µM |
| CCN(CC)CCNc1ccc2ncn3c4ccc(O)cc4c(=O)c1c23 [Symadex, 5-(2-(diethylamino)ethylamino)-8-hydroxy-6H-imidazo[4,5,1-de]acridin-6-one, reference compound] | 3.56 µM | 3.98 µM | 4.93 µM | 0.041 µM | > 5 µM | 3.48 µM | > 5 µM | 0.791 µM | 0.959 µM | > 5 µM | > 5 µM | 3.6 µM | > 5 µM | > 5 µM | 3.96 µM | > 5 µM | 0.735 µM | 3.71 µM | > 5 µM | > 5 µM | EC50 [9]: > 5 µM; EC50 [11]: > 5 µM; EC50 [23]: > 5 µM; EC50 [24]: > 5 µM; EC50 [25]: 2.07 µM; EC50 [26]: > 5 µM |
